Experimental data reported in BigSolDB 2.1.

COc1cc2c(cc1OC)C(=O)C(CC1CCN(Cc3ccccc3)CC1)C2.Cl (stereo not drawn)
solubility (mole fraction)
Conditions	in DMF	in ethanol	in methanol	in n-propanol
278.15 K	0.00119	0.000291	0.00167	0.000112
283.15 K	0.00135	0.000379	0.00222	0.000153
288.15 K	0.00152	0.000484	0.00287	0.000214
293.15 K	0.00173	0.000609	0.00375	0.000301
298.15 K	0.00196	0.000768	0.00483	0.000404
303.15 K	0.00222	0.000951	0.00636	0.000543
308.15 K	0.00251	0.00118	0.00803	0.000743
313.15 K	0.00286	0.00145	0.0105	0.00102
318.15 K	0.00325	0.00177	0.0133	0.00133
323.15 K	0.00368	0.00215	0.017	0.0018
328.15 K	0.00418	0.00259	0.0216	0.00241
333.15 K	0.00476	0.00308	0.0277	0.00321
